Source: ChEMBL document CHEMBL4265881, “Synthesis and bioactivity of 3,5-dimethylpyrazole derivatives as potential PDE4 inhibitors” (Bioorg Med Chem Lett, 2018)

Tests used:
Mus musculus = assay: Anti-inflammatory activity in Swiss albino mouse model of sepsis assessed as inhibition of LPS-induced TNFalpha release at 10 mg/kg, po; assay type: functional
[1] = Inhibition of PDE4 in human PBMC assessed as reduction in LPS-stimulated TNFalpha release preincubated for 30 mins followed by LPS stimulation for 18 hrs by TR-FRET assay; assay type: cell-based
Rattus norvegicus = assay: Anti-inflammatory activity in Sprague-Dawley rat model of LPS-induced asthma/COPD assessed as inhibition of neutrophilia in BALF at 10 mg/kg, po; assay type: functional
[2] = target: 3',5'-cyclic-AMP phosphodiesterase 4B (Homo sapiens, UniProt Q07343); assay: Inhibition of human U937 cells-derived PDE4B using [3H]-cAMP as substrate measured after 30 mins
3',5'-cyclic-AMP phosphodiesterase 4B, sequence (Q07343 whole entry): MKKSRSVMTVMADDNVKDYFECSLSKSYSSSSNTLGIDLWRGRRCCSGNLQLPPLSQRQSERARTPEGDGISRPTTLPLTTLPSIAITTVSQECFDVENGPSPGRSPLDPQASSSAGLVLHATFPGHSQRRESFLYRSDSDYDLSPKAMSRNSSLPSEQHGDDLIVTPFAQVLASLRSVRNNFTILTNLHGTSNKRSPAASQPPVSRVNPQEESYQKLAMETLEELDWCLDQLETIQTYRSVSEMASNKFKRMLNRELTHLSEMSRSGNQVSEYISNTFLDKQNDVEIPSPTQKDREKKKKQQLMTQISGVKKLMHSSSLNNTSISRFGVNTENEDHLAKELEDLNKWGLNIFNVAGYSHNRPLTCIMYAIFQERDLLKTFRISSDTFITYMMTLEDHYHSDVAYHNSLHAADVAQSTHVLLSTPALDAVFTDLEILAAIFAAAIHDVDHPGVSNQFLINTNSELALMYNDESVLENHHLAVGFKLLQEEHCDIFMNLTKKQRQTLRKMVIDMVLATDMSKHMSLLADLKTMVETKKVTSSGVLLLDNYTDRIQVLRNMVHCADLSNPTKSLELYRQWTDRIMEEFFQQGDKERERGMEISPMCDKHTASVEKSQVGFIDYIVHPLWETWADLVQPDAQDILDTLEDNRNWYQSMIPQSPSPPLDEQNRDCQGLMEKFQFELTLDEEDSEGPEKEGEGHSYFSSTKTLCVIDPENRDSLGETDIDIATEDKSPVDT

[3] = target: 3',5'-cyclic-AMP phosphodiesterase 4D (Homo sapiens, UniProt Q08499); assay: Inhibition of human U937 cells-derived PDE4D using [3H]-cAMP as substrate measured after 30 mins
3',5'-cyclic-AMP phosphodiesterase 4D, sequence (Q08499 whole entry): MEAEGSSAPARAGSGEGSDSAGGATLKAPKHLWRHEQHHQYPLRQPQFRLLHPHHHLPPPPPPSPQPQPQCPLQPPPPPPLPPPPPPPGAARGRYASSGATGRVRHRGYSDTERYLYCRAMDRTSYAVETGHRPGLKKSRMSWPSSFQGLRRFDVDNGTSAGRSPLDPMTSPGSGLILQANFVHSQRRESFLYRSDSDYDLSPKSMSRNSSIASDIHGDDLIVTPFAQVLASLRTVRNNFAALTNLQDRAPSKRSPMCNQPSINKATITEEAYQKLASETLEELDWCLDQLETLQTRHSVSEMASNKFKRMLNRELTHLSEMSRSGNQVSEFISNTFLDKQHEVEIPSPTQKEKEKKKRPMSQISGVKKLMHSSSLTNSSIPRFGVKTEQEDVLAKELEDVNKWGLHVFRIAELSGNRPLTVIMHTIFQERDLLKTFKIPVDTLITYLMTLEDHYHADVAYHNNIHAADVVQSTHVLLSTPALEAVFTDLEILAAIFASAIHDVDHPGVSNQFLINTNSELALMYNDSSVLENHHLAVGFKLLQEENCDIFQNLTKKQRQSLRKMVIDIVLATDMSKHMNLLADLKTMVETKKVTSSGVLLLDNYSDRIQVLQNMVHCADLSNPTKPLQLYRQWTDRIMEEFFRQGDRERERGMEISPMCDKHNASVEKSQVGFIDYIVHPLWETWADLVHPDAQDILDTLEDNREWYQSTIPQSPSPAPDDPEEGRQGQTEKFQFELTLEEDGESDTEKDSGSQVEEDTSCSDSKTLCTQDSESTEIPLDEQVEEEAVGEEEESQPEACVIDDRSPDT

COc1ccc(C2CNC(=O)C2)cc1OC1CCCC1 (centres undefined) [ROLIPRAM]
inhibition in vivo at 10 mg/kg (Mus musculus): 41.7%
IC50 [1]: 16.5 µM
inhibition in vivo at 10 mg/kg (Rattus norvegicus): 32.8%

Cc1cc(C)n(C(=O)c2ccc(-c3ccccc3F)o2)n1
IC50 [1]: 98.2 µM
IC50 [2]: 45.3 µM

Cc1cc(C)n(C(=O)c2ccc(-c3ccc(Br)cc3)o2)n1
IC50 [1]: 154 µM
IC50 [2]: 51.1 µM

Cc1cc(C)n(C(=O)c2ccc(-c3ccccc3[N+](=O)[O-])o2)n1
IC50 [1]: 168 µM
IC50 [2]: 62.7 µM

Cc1cc(C)n(C(=O)c2ccc(-c3ccc(F)cc3)o2)n1
IC50 [3]: 49.3 µM
IC50 [1]: 24.3 µM
IC50 [2]: 7.2 µM

Cc1cc(C)n(C(=O)c2ccc(-c3cccc(F)c3)o2)n1
IC50 [1]: 70.8 µM
IC50 [2]: 20.2 µM

Cc1cc(C)n(C(=O)c2ccc(-c3c(F)cccc3F)o2)n1
IC50 [3]: 88.2 µM
IC50 [1]: 88.7 µM
IC50 [2]: 14.5 µM

Cc1cc(C)n(C(=O)c2ccc(-c3ccc(Cl)cc3)o2)n1
IC50 [3]: 26.4 µM
IC50 [1]: 25.1 µM
IC50 [2]: 3.9 µM

Cc1cc(C)n(C(=O)c2ccc(-c3ccc(F)cc3F)o2)n1
inhibition in vivo at 10 mg/kg (Mus musculus): 29.6%
IC50 [3]: 19.6 µM
IC50 [1]: 19.2 µM
inhibition in vivo at 10 mg/kg (Rattus norvegicus): 24.2%
IC50 [2]: 3.2 µM

COc1ccc(-c2ccc(C(=O)n3nc(C)cc3C)o2)cc1
inhibition in vivo at 10 mg/kg (Mus musculus): 43.1%
IC50 [3]: 9.6 µM
IC50 [1]: 10.4 µM
inhibition in vivo at 10 mg/kg (Rattus norvegicus): 36.5%
IC50 [2]: 1.7 µM

Cc1cc(C)n(C(=O)c2ccc(-c3ccc([N+](=O)[O-])cc3)o2)n1
IC50 [3]: 87.3 µM
IC50 [1]: 41.7 µM
IC50 [2]: 15.4 µM

Cc1cc(C)n(C(=O)c2ccc(-c3cccc(Cl)c3)o2)n1
IC50 [1]: 58.4 µM
IC50 [2]: 20.9 µM

Cc1cc(C)n(C(=O)c2ccc(-c3cccc([N+](=O)[O-])c3)o2)n1
IC50 [1]: 69.3 µM
IC50 [2]: 35.9 µM

Cc1ccc(-c2ccc(C(=O)n3nc(C)cc3C)o2)cc1
IC50 [3]: 52.9 µM
IC50 [1]: 37.1 µM
IC50 [2]: 8.4 µM

Cc1cc(C)n(C(=O)c2ccc(-c3ccccc3)o2)n1
IC50 [1]: 178 µM
IC50 [2]: 70.3 µM

Cc1cc(C)n(C(=O)c2ccc(-c3ccccc3Cl)o2)n1
IC50 [1]: 112 µM
IC50 [2]: 52.4 µM
